Our source for the inhibition values is patent publication US5922711A, “8-substituted quinazolines, quinoxalines and benzopyridazines” (Fujisawa Pharmaceutical Co., Ltd., priority 1993, dated 1999).

This test deals with T1, Bradykinin receptor (Cavia porcellus, UniProt O70526).
T1 construct: The ileum was removed and homogenized in buffer; from tissue; host or cells: guinea pig ileum, crude membrane suspension
T1 sequence (O70526 1-372): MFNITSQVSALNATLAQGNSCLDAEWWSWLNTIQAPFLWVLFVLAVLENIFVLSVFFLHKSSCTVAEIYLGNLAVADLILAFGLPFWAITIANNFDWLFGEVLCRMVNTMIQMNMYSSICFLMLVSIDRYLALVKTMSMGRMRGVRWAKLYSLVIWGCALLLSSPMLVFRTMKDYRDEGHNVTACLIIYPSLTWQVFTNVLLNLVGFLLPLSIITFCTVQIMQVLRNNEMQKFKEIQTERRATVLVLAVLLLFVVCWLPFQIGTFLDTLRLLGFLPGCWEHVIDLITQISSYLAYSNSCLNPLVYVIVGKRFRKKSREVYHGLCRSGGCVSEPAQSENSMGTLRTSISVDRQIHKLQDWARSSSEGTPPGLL
Kind of test: 3H-Bradykinin receptor binding (guinea pig ileum crude membrane). To be noted: concentration: 1 × 10^-6 M, 3H-Bradykinin 0.06 nM, room temperature, 60 minutes. Here is the method:
^3 H-Bradykinin receptor binding
(a) Crude ileum membrane preparation
Male Hartly strain guinea pigs were sacrificed by decapitation. The ileum was removed and homogenized in buffer (50 mM trimethylaminoethanesulfonic acid (TES), 1 mM 1,10-phenanthroline pH 6.8). The homogenate was centrifuged (1000×g, 20 minutes) to remove tissue clumps and the supernatant was centrifuges (100,000×g, 60 minutes) to yield a pellet. The pellet was resuspended in buffer (50 mm TES, 1 mM 1,10-phenanthroline, 140 mg/l bacitracin, 1 mM dithiothreiol, 0.1% bovine serum albumin pH 6.8) and homogenized with a glass-teflon homogenizer to yield suspension which was referred to as crude membrane suspension. The obtained membrane suspension was stored at -80° C. until use.
(b) ^3 H-Bradykinin binding to the membrane
The frozen crude membrane suspension was thawed. In binding assays, ^3 H-Bradykinin (0.06 nM) and drug (1×10^-6 M) were incubated with 50 μl of the membrane suspension at room temperature for 60 minutes in a final volume of 250 μl. Separation of receptor-bound from free ^3 H-Bradykinin is achieved by immediate filtration under vacuum and washed three times with 5 ml of ice-cold buffer (50 mM Tris-HCl pH 7.5). Non-specific binding was defined as binding in the presence of 0.1 μM Bradykinin. The radioactivity retained on rinsed filters was determined by a liquid-scintillation counter.

Structures are written as SMILES. Counter-ions that a name gives are not always drawn.

`Cc1ccc2cccc(OCc3c(Cl)ccc(N(C)C(=O)CNC(=O)Nc4cccc(N)c4)c3Cl)c2n1` [41-(12), 8-[3-[N-[N'-(3-Aminophenyl)ureidoacetyl]-N-methylaminol-2,6-dichlorobenzyloxy]-2-methylquinolinedihydrochloride]: at 1 µM the inhibition was 95%.

The compound `CCNC(=O)NCC(=O)N(C)c1ccc(Cl)c(COc2cccc3c(OC)cc(C)nc23)c1Cl` [41-(64), 8-[2,6-Dichloro-3-[N-(N'-ethylureidoacetyl)-N-methylamino]benzyloxy]-4-methoxy-2-methylquinoline hydrochloride] had an inhibition at 1 µM of 95%.

Turning to `CCC(=O)Nc1cccc(NC(=O)NCC(=O)N(C)c2ccc(Cl)c(COc3cccc4ccc(C)nc34)c2Cl)c1` [57 (hydrochloride), 8-[2,6-Dichloro-3-[N-methyl-N-[N'-(3-propionamidophenyl)ureidoacetyl]amino]benzyloxy]-2-methylquinoline], the inhibition at 1 µM was determined as 99%.

`Cc1ccc2cccc(OCc3c(Cl)ccc(N(C)C(=O)CNC(=O)Nc4cccc(C(=O)N(C)c5cccnc5)c4)c3Cl)c2n1` [34-(7), 8-[2,6-Dichloro-3-[N-methyl-N-[N'-[3-[N-methyl-N-(3-pyridyl)carbamoyl]phenyl]ureidoacetyl]amino]benzyloxy]-2-methylquinoline] registered an inhibition at 1 µM of 100%.

In turn, `Cc1ccc2cccc(OCc3c(Cl)ccc(N(C)C(=O)CNC(=O)/C=C/c4ccc(NC(=O)c5ccccn5)cc4)c3Cl)c2n1` [58-(11) (dihydrochloride), 8-[2,6-Dichloro-3-[N-methyl-N-[4-(2-pyridine-carboxamido)cinnamoylglycyl]amino]benzyloxy]-2-methylquinoline] came in with an inhibition at 1 µM of 99%. In turn, `Cc1ccc2cccc(OCc3c(Cl)ccc(N(C)C(=O)CNC(=O)/C=C/c4ccc(N)cc4)c3Cl)c2n1` [35-(3), 8-[3-[N-(4-Aminocinnamoylglycyl)-N-methylamino]-2,6-dichlorobenzyloxy]-2-methylquinoline] showed an inhibition at 1 µM of 99%. The same measure for `Cc1ccc2cccc(OCc3c(Cl)ccc(N(C)C(=O)CNC(=O)/C=C/c4ccc(OCCN(C)C)cc4)c3Cl)c2n1` [41-(53), 8-[2,6-Dichloro-3-[N-[4-[2-(N,N-dimethylamino)ethoxy]cinnamoylglycyl)-N-methylamino]benzloxy]-2-methylquinoline dihydrochloride]: 99%; for `CCc1cc(Cl)c2cccc(OCc3c(Cl)ccc(N(C)C(=O)CNC(=O)Nc4cccc(C(C)=O)c4)c3Cl)c2n1` [29-(36), 8-[3-[N-[N'-(3-Acetylphenyl)ureidoacetyl]-N-methylamino]-2,6-dichlorobenzyloxy]-4-chloro-2-ethylquinoline hydrochloride]: 98%.

Usually inhibition stands for the drop in the measured response relative to a control, in per cent. A higher inhibition goes with a response far below the control.
